Measurements as given in patent publication US9676806B2, “Metal-based thiophene photodynamic compounds and their use” (priority 2012, dated 2017).

Test system: pUC19 plasmid DNA
Experiment: PDC-mediated pUC19 photocleavage, gel electrophoretic analysis
[1] = Air, +hv, 420-nm irradiation 1 hr, FIG. 15
[2] = Air, +hv, visible irradiation 1 hr, 21 W/m^2, FIG. 16
[3] = Ar, +hv, 420-nm irradiation 1 hr, FIG. 15
[4] = Ar, +hv, visible irradiation 1 hr, 21 W/m^2, FIG. 16

Procedure: FIG. 16: Gel electrophoretic analysis (1% agarose gel precast with 0.75 μg mL^−1 ethidium bromide, 1×TAE, 8 V cm^−1, 30 min.) of PDC-mediated pUC19 photocleavage in air-saturated and deoxygenated solution: visible irradiation of pUC19 (20 μM NP in 10 mM Tris·100 mM NaCl, pH 7.4) for 1 hr. with cool white fluorescent tubes, 21 W/m^2. Lanes 1 (−PDC, −hv), 2 (500 μM [Ru(bpy)3]^2+, −hv), and 5 (2 μM 10a, −hv) are controls. Lanes 3 (500 μM [Ru(bpy)3]^2+, +hv) and 6 (2 μM 10a, +hv) contain samples that were irradiated in air; lanes 4 and 7 are the corresponding samples irradiated in argon.
DNA photocleavage experiments were performed according to a general plasmid DNA assay with 20 μL total sample volumes in 0.5 or 1.5 mL microfuge tubes containing transformed pUC19 plasmid (200 ng, >95% Form I) in 10 mM MOPS buffer and 100 mM NaCl, pH 7.4. DNA (1-5 μL) was delivered to the assay tubes as a solution in 10 mM Tris-Cl (pH 8.5) and diluted with MOPS (pH 7.5, final concentration 10 mM) and NaCl (final concentration 100 mM). […] Complexes were dissolved initially in acetonitrile (2 μM stock solutions), and all subsequent dilutions were made with ddH2O where final assay tubes contained <1% acetonitrile. For concentration-based assays, samples (no pre-incubation period) were irradiated in air for 30 min with 420 nm light inside a photoreactor (Luzchem LZC-4X). Where irradiation of deoxygenated samples was required, argon was bubbled through the solutions for 15 min prior to irradiation under a positive pressure of argon. All samples were quenched by the addition of gel loading buffer (4 μL), loaded onto 1% agarose gels containing ethidium bromide (0.75 μg mL^−1), and electrophoresed for 30 min at 8-12 V cm^−1 in 1×TAE (40 mM Trisacetate, 1 mM EDTA, pH 8.2). The bands were visualized with UV-transillumination (UVP transilluminator) and quantified using the Gel Doc-It Imaging system (UVP) or GNU Image Manipulation Program (GIMP).

With `[Ru+2].c1ccc(-c2ccccn2)nc1.c1ccc(-c2ccccn2)nc1.c1ccc(-c2ccccn2)nc1` [[Ru(bpy)^3]^2+] the “Form I” value [1] was 33%, the “Form II” value [1] was 67% and the “Form I” value [2] was 37%. For the same compound, the “Form II” value [2] was 63%, the “Form II” value (Air, dark, 420-nm experiment FIG. 15) was 29% and the “Form I” value (Air, dark, 420-nm experiment FIG. 15, 300 μM [Ru(bpy)3]2+, 2 μM 10a, 4 μM 10b, 8 μM 14a) was 71%. For the same compound, the “Form II” value (Air, dark, visible experiment FIG. 16) was 28%, the “Form I” value (Air, dark, visible experiment FIG. 16, 500 μM [Ru(bpy)3]2+, 2 μM 10a) was 72% and the “Form I” value [3] was 71%. The “Form II” value [3] was 29%, the “Form I” value [4] was 57% and the “Form II” value [4] was 43%.
